In ChEMBL document CHEMBL1145498, “A systematic interaction map of validated kinase inhibitors with Ser/Thr kinases” (Proc Natl Acad Sci U S A, 2007):

target: 5'-AMP-activated protein kinase catalytic subunit alpha-2 (Homo sapiens) (UniProt P54646)
Sequence (P54646 whole entry, looked up): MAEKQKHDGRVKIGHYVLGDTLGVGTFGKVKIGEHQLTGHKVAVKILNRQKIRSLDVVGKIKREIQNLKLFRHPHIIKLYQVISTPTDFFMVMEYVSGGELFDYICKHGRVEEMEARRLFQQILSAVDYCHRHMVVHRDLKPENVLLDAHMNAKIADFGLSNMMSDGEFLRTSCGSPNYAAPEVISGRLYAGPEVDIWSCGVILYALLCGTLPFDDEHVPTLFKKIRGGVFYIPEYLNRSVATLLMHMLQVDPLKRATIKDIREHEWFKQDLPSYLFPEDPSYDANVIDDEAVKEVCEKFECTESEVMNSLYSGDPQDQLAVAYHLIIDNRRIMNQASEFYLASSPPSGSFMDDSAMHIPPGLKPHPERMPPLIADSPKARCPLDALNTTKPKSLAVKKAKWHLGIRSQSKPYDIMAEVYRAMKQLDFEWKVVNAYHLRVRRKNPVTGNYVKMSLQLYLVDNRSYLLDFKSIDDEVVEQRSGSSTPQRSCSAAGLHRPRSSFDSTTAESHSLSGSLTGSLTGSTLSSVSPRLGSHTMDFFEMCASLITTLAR

ΔTm | Structure (SMILES)
6.8 °C | O=C1Nc2ccc(I)cc2/C1=C1/Nc2ccccc2/C1=N\O
-0.9 °C | Nc1cc2ncnc(Nc3cccc(Br)c3)c2cc1N

Structure (SMILES) | ΔTm
NC(=O)c1ccc(-c2nc(-c3ccc4c(c3)OCCO4)c(-c3ccccn3)[nH]2)cc1 | -0.7 °C

target: Calcium/calmodulin-dependent protein kinase type II subunit alpha (Homo sapiens) (UniProt Q9UQM7)
Sequence (Q9UQM7 whole entry): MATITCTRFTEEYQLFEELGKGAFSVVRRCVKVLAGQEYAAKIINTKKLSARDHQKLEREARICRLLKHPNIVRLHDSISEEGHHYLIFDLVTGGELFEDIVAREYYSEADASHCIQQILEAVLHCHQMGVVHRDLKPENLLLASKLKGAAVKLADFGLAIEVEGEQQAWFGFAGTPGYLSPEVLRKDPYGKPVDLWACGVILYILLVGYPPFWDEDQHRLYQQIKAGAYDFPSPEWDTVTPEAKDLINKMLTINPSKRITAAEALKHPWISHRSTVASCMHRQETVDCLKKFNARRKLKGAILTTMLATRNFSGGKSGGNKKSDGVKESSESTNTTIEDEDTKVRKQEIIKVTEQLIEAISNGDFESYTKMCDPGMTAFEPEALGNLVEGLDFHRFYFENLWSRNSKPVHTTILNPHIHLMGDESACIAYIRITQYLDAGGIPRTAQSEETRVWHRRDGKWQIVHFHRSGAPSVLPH

ΔTm | Structure (SMILES)
4.5 °C | O=C1Nc2ccc(I)cc2/C1=C1/Nc2ccccc2/C1=N\O
0 °C | Nc1cc2ncnc(Nc3cccc(Br)c3)c2cc1N

Structure (SMILES) | ΔTm
NC(=O)c1ccc(-c2nc(-c3ccc4c(c3)OCCO4)c(-c3ccccn3)[nH]2)cc1 | 0.1 °C

target: T1, Calcium/calmodulin-dependent protein kinase type IV (Homo sapiens) (UniProt Q16566)
T1 sequence (whole entry): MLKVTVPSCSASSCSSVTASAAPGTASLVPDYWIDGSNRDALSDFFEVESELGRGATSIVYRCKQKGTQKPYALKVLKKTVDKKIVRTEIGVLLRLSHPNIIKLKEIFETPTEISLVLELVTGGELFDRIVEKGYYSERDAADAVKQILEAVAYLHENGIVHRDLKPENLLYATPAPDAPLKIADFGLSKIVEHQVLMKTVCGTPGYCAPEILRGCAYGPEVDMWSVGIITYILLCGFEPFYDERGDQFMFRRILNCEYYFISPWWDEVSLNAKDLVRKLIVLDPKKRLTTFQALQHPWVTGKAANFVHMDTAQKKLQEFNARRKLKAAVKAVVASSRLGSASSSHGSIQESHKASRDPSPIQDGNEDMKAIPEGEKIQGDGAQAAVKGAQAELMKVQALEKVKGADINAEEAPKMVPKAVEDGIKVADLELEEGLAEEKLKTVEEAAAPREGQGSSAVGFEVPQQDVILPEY

ΔTm | Structure (SMILES)
2.6 °C | O=C1Nc2ccc(I)cc2/C1=C1/Nc2ccccc2/C1=N\O
0.4 °C | Nc1cc2ncnc(Nc3cccc(Br)c3)c2cc1N

Structure (SMILES) | ΔTm
NC(=O)c1ccc(-c2nc(-c3ccc4c(c3)OCCO4)c(-c3ccccn3)[nH]2)cc1 | -0.9 °C

target: Calcium/calmodulin-dependent protein kinase kinase 2 (Homo sapiens, UniProt Q96RR4)
Sequence (Q96RR4 2-588 limits assumed): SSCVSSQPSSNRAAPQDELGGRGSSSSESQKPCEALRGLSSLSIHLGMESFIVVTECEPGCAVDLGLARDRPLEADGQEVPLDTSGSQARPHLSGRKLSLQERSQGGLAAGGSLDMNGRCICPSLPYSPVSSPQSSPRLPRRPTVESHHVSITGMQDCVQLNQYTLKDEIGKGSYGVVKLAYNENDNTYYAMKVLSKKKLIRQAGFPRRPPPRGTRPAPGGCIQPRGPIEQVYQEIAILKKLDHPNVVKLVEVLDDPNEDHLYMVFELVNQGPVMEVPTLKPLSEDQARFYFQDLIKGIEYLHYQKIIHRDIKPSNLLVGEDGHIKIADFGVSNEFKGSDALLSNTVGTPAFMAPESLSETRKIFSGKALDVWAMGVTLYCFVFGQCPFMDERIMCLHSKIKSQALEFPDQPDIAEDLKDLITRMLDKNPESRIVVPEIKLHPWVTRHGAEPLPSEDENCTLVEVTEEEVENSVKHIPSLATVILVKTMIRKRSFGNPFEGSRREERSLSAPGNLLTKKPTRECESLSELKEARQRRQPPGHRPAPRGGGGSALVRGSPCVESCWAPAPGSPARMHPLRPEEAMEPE

ΔTm | Structure (SMILES)
6.9 °C | O=C1Nc2ccc(I)cc2/C1=C1/Nc2ccccc2/C1=N\O
-1 °C | Nc1cc2ncnc(Nc3cccc(Br)c3)c2cc1N

Structure (SMILES) | ΔTm
NC(=O)c1ccc(-c2nc(-c3ccc4c(c3)OCCO4)c(-c3ccccn3)[nH]2)cc1 | -1.1 °C

target: Serine/threonine-protein kinase Chk2 (Homo sapiens, UniProt O96017)
Sequence (O96017 whole entry): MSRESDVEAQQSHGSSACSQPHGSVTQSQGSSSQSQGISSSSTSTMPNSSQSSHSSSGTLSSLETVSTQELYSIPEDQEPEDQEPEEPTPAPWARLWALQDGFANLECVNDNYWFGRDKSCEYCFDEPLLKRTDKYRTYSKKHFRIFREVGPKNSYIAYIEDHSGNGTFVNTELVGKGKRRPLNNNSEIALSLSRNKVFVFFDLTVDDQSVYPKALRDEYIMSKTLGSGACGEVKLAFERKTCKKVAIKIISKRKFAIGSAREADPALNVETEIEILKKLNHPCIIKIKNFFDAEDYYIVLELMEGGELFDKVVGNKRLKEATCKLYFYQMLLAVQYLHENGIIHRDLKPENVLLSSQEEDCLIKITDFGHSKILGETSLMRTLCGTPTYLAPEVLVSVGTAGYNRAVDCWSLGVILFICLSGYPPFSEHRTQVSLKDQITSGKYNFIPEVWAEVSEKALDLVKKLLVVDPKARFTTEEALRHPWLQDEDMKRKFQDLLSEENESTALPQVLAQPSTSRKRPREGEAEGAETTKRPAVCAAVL

ΔTm | Structure (SMILES)
1.9 °C | O=C1Nc2ccc(I)cc2/C1=C1/Nc2ccccc2/C1=N\O
1.8 °C | Nc1cc2ncnc(Nc3cccc(Br)c3)c2cc1N

Structure (SMILES) | ΔTm
NC(=O)c1ccc(-c2nc(-c3ccc4c(c3)OCCO4)c(-c3ccccn3)[nH]2)cc1 | -0.3 °C

target: Dual specificity protein kinase CLK1 (Homo sapiens) (UniProt P49759)
Sequence (P49759 whole entry, looked up): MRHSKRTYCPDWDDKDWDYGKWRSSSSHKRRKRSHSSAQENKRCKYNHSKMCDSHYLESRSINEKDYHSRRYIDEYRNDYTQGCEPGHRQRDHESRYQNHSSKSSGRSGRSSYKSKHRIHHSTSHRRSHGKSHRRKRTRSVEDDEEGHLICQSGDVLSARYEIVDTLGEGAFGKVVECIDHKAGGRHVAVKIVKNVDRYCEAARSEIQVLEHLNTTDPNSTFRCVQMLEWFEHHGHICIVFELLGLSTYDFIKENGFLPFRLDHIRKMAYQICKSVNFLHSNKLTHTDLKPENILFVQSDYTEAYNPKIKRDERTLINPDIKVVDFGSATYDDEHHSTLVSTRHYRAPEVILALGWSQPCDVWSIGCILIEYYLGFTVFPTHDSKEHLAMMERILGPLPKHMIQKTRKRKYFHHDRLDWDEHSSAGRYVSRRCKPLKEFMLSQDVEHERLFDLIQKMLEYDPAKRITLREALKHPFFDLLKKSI

ΔTm | Structure (SMILES)
3.2 °C | O=C1Nc2ccc(I)cc2/C1=C1/Nc2ccccc2/C1=N\O
2.2 °C | Nc1cc2ncnc(Nc3cccc(Br)c3)c2cc1N

Structure (SMILES) | ΔTm
NC(=O)c1ccc(-c2nc(-c3ccc4c(c3)OCCO4)c(-c3ccccn3)[nH]2)cc1 | -0.4 °C

target: Casein kinase I isoform gamma-2 (Homo sapiens) (UniProt P78368)
Sequence (P78368 whole entry, looked up, canonical isoform): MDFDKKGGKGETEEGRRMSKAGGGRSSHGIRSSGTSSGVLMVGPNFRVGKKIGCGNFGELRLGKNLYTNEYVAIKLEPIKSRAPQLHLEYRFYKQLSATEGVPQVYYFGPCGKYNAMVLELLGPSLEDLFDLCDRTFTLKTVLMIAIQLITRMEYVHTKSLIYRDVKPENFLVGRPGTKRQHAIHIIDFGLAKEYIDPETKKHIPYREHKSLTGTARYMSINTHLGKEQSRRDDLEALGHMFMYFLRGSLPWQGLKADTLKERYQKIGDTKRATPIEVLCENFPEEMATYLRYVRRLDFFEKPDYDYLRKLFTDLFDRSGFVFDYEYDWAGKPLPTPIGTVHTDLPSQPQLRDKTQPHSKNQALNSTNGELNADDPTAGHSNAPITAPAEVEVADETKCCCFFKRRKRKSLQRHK

ΔTm | Structure (SMILES)
1.9 °C | O=C1Nc2ccc(I)cc2/C1=C1/Nc2ccccc2/C1=N\O
0.4 °C | Nc1cc2ncnc(Nc3cccc(Br)c3)c2cc1N

Structure (SMILES) | ΔTm
NC(=O)c1ccc(-c2nc(-c3ccc4c(c3)OCCO4)c(-c3ccccn3)[nH]2)cc1 | 0.4 °C

target: Casein kinase I isoform gamma-3 (Homo sapiens) (UniProt Q9Y6M4)
Sequence (Q9Y6M4 whole entry, looked up, canonical isoform): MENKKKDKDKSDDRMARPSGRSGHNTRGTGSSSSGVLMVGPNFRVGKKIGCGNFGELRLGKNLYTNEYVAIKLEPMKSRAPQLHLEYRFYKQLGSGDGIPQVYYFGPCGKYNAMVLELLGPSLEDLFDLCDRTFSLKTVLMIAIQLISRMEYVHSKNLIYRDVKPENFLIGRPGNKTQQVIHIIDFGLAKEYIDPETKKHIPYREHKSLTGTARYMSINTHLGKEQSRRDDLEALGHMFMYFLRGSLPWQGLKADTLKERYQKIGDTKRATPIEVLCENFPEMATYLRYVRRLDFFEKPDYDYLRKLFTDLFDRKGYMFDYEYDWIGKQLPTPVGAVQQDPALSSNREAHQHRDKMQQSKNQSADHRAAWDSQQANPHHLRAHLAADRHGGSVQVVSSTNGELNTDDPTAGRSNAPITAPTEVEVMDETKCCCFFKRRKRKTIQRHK

ΔTm | Structure (SMILES)
1.8 °C | O=C1Nc2ccc(I)cc2/C1=C1/Nc2ccccc2/C1=N\O
0.4 °C | Nc1cc2ncnc(Nc3cccc(Br)c3)c2cc1N

Structure (SMILES) | ΔTm
NC(=O)c1ccc(-c2nc(-c3ccc4c(c3)OCCO4)c(-c3ccccn3)[nH]2)cc1 | 0.8 °C

target: Tyrosine-protein kinase JAK1 (Homo sapiens) (UniProt P23458)
Sequence (P23458 whole entry): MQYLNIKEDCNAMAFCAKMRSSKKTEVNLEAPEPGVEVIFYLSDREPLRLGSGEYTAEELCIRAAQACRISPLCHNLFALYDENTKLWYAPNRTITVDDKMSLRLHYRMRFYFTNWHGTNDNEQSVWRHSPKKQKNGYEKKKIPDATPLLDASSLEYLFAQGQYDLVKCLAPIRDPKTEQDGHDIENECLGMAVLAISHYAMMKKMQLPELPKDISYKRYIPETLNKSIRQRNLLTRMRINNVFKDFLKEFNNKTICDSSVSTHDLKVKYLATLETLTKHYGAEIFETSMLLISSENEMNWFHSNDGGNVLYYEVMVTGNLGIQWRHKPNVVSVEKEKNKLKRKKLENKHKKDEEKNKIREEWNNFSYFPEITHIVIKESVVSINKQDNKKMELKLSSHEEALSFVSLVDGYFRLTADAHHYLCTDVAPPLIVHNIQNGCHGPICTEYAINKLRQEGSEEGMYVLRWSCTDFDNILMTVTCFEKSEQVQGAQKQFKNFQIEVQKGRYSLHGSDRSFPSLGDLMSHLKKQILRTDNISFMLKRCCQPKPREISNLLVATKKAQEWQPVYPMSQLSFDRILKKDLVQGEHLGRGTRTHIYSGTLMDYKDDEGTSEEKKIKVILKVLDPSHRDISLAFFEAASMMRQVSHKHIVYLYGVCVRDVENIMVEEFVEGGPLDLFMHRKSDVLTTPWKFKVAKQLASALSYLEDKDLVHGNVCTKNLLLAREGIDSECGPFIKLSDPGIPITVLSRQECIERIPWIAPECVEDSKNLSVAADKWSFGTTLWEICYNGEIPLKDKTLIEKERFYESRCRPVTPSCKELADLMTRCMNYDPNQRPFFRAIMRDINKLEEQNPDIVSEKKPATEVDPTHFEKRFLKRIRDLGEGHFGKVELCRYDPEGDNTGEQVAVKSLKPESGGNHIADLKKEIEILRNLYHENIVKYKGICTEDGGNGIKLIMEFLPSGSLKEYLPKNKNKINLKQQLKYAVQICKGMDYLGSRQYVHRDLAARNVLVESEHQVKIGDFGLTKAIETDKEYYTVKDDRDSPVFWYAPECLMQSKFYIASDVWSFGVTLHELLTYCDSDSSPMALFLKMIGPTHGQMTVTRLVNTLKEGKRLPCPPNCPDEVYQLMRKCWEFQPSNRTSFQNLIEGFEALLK

ΔTm | Structure (SMILES)
8.3 °C | O=C1Nc2ccc(I)cc2/C1=C1/Nc2ccccc2/C1=N\O
2.2 °C | Nc1cc2ncnc(Nc3cccc(Br)c3)c2cc1N

Structure (SMILES) | ΔTm
NC(=O)c1ccc(-c2nc(-c3ccc4c(c3)OCCO4)c(-c3ccccn3)[nH]2)cc1 | 1.3 °C

target: T2, Dual specificity mitogen-activated protein kinase kinase 6 (Homo sapiens) (UniProt P52564)
T2 sequence (whole entry): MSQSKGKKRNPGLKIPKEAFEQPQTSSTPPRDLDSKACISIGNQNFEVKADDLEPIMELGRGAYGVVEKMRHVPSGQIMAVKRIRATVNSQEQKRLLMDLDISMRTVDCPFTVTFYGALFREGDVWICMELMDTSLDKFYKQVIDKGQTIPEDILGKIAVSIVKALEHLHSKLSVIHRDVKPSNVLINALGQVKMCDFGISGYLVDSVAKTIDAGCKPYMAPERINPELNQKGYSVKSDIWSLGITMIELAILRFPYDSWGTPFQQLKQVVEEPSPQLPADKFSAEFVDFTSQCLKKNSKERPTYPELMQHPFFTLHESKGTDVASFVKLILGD

ΔTm | Structure (SMILES)
1.5 °C | O=C1Nc2ccc(I)cc2/C1=C1/Nc2ccccc2/C1=N\O
0.7 °C | Nc1cc2ncnc(Nc3cccc(Br)c3)c2cc1N

Structure (SMILES) | ΔTm
NC(=O)c1ccc(-c2nc(-c3ccc4c(c3)OCCO4)c(-c3ccccn3)[nH]2)cc1 | 0.3 °C

target: Mitogen-activated protein kinase 3 (Homo sapiens, UniProt P27361)

ΔTm | Structure (SMILES)
2.1 °C | O=C1Nc2ccc(I)cc2/C1=C1/Nc2ccccc2/C1=N\O
0.4 °C | Nc1cc2ncnc(Nc3cccc(Br)c3)c2cc1N

Structure (SMILES) | ΔTm
NC(=O)c1ccc(-c2nc(-c3ccc4c(c3)OCCO4)c(-c3ccccn3)[nH]2)cc1 | -0.1 °C

target: Serine/threonine-protein kinase Nek6 (Homo sapiens) (UniProt Q9HC98)
Sequence (Q9HC98 whole entry): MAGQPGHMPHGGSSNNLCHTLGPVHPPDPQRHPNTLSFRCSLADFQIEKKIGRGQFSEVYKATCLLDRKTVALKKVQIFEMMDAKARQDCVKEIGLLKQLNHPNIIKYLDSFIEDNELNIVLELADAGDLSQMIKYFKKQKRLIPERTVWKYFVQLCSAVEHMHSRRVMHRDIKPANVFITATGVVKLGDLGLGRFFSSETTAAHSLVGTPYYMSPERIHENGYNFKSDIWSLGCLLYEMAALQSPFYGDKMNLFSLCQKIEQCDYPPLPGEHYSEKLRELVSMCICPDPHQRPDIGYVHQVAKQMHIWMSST

ΔTm | Structure (SMILES)
-2 °C | O=C1Nc2ccc(I)cc2/C1=C1/Nc2ccccc2/C1=N\O
-0.2 °C | Nc1cc2ncnc(Nc3cccc(Br)c3)c2cc1N

Structure (SMILES) | ΔTm
NC(=O)c1ccc(-c2nc(-c3ccc4c(c3)OCCO4)c(-c3ccccn3)[nH]2)cc1 | -0.7 °C

target: T3, 3-phosphoinositide-dependent protein kinase 1 (Homo sapiens) (UniProt O15530)
T3 sequence (whole entry): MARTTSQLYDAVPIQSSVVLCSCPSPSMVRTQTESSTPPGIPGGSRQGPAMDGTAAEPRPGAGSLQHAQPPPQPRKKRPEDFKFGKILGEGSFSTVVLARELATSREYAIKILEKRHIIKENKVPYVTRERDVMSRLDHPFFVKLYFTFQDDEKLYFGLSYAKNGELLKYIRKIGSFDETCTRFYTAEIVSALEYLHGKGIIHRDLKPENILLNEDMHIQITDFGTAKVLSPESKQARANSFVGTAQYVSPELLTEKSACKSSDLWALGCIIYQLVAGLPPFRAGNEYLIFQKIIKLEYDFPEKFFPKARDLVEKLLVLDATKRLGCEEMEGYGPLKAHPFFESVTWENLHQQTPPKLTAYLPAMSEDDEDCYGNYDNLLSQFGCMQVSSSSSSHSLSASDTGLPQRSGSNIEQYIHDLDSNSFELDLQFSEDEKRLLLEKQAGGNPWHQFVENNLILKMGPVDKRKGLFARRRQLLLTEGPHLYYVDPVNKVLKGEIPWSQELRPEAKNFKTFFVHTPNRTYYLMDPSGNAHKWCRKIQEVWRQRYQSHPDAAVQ

ΔTm | Structure (SMILES)
-0.3 °C | O=C1Nc2ccc(I)cc2/C1=C1/Nc2ccccc2/C1=N\O
-0.2 °C | Nc1cc2ncnc(Nc3cccc(Br)c3)c2cc1N

Structure (SMILES) | ΔTm
NC(=O)c1ccc(-c2nc(-c3ccc4c(c3)OCCO4)c(-c3ccccn3)[nH]2)cc1 | -0.1 °C

target: cAMP-dependent protein kinase catalytic subunit alpha (Homo sapiens) (UniProt P17612)

ΔTm | Structure (SMILES)
-0.7 °C | O=C1Nc2ccc(I)cc2/C1=C1/Nc2ccccc2/C1=N\O
1 °C | Nc1cc2ncnc(Nc3cccc(Br)c3)c2cc1N

Structure (SMILES) | ΔTm
NC(=O)c1ccc(-c2nc(-c3ccc4c(c3)OCCO4)c(-c3ccccn3)[nH]2)cc1 | -0.3 °C

target: Serine/threonine-protein kinase RIO2 (Homo sapiens) (UniProt Q9BVS4)

ΔTm | Structure (SMILES)
2.5 °C | O=C1Nc2ccc(I)cc2/C1=C1/Nc2ccccc2/C1=N\O
3.4 °C | Nc1cc2ncnc(Nc3cccc(Br)c3)c2cc1N

Structure (SMILES) | ΔTm
NC(=O)c1ccc(-c2nc(-c3ccc4c(c3)OCCO4)c(-c3ccccn3)[nH]2)cc1 | 0.7 °C

target: Ribosomal protein S6 kinase alpha-3 (Homo sapiens) (UniProt P51812)

ΔTm | Structure (SMILES)
2.7 °C | O=C1Nc2ccc(I)cc2/C1=C1/Nc2ccccc2/C1=N\O
0.9 °C | Nc1cc2ncnc(Nc3cccc(Br)c3)c2cc1N

Structure (SMILES) | ΔTm
NC(=O)c1ccc(-c2nc(-c3ccc4c(c3)OCCO4)c(-c3ccccn3)[nH]2)cc1 | -0.1 °C

target: STE20-like serine/threonine-protein kinase (Homo sapiens) (UniProt Q9H2G2)

ΔTm | Structure (SMILES)
3.7 °C | O=C1Nc2ccc(I)cc2/C1=C1/Nc2ccccc2/C1=N\O
5.7 °C | Nc1cc2ncnc(Nc3cccc(Br)c3)c2cc1N

Structure (SMILES) | ΔTm
NC(=O)c1ccc(-c2nc(-c3ccc4c(c3)OCCO4)c(-c3ccccn3)[nH]2)cc1 | -1.1 °C

target: TRAF2 and NCK-interacting protein kinase (Homo sapiens) (UniProt Q9UKE5)

ΔTm | Structure (SMILES)
5.2 °C | O=C1Nc2ccc(I)cc2/C1=C1/Nc2ccccc2/C1=N\O
0.5 °C | Nc1cc2ncnc(Nc3cccc(Br)c3)c2cc1N

Structure (SMILES) | ΔTm
NC(=O)c1ccc(-c2nc(-c3ccc4c(c3)OCCO4)c(-c3ccccn3)[nH]2)cc1 | -0.6 °C

target: T4, Serine/threonine-protein kinase VRK3 (Homo sapiens) (UniProt Q8IV63)
T4 sequence (whole entry): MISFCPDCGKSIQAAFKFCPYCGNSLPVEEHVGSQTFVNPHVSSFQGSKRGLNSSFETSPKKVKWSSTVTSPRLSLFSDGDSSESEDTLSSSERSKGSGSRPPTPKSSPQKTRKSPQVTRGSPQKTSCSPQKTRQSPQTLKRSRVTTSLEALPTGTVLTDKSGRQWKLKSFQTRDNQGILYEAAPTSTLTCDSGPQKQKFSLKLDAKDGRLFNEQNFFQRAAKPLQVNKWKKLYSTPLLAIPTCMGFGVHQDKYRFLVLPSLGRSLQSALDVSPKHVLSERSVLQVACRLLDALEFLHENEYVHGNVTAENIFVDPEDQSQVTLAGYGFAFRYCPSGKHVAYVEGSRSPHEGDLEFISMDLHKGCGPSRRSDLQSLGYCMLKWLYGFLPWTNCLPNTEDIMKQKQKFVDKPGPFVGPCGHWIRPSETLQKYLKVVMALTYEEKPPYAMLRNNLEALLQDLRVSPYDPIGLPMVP

ΔTm | Structure (SMILES)
0.4 °C | O=C1Nc2ccc(I)cc2/C1=C1/Nc2ccccc2/C1=N\O
0 °C | Nc1cc2ncnc(Nc3cccc(Br)c3)c2cc1N

Structure (SMILES) | ΔTm
NC(=O)c1ccc(-c2nc(-c3ccc4c(c3)OCCO4)c(-c3ccccn3)[nH]2)cc1 | 0.3 °C
